Data set [1] can be described thus: Solubility in pH 1.0, 4.5, 6.8 buffer solutions and pure water (supersaturated solution, 37° C., HPLC). In kind it is physicochemical. To be noted: for solubility: ultrapure water, thermodynamic from solid, 37° C. water bath overnight, read-out: apparent solubility in pure water. Here is the method:
1. The experiment process A pH 1.0 HCl solution, a pH 4.5 acetate buffer solution, a pH 6.8 phosphate buffer solution and 5 mL of ultrapure water are added into graduated test tubes having stoppers. Small amounts of the test samples (butyphthalide (NBP), DB-1 hydrochloride or DB-2 hydrochloride) are weighed and added in batches. After each batch of the adding, intense shaking is performed for 30 seconds (ultrasound is prohibited), the dissolving is observed at any time, and when the test samples are add so that turbid insoluble particles or liquid drops can be seen, finally proper amounts of the test samples are added. The system is placed into a 37° C. water bath and vibrated overnight, to form a supersaturated solution. The supersaturated solution is centrifuged or filtered (the adsorption should be noticed), and 100 μL is fed into HPLC to measure the concentrations of the tested medicines.

Data set [2] is described as follows: Hygroscopicity: moisture absorption/weight gaining percentage at 25° C., relative humidity 75%. The format is physicochemical. Here is the method:
1. The Experiment Process
Three samples of each of the sodium salt of 2-(α-hydroxypentyl)benzoic acid, DB-1 and DB-2 are precisely weighed with approximately 0.2 g for each sample, and placed into weighing bottles, and the total masses of each of the samples and its weighing bottle are weighed and recorded. Then the weighing bottles are placed in a closed environment at 25° C. and at a constant humidity with the relative humidity of 75%, their masses are weighed at 6 h, 12 h, 24 h, 48 h, 96 h and 120 h, and the moisture absorption/weight gaining percentages are calculated. The moisture absorption/weight gaining percentages are calculated by using the formula as follows: moisture absorption/weight gaining percentage (%)=(sample mass after dilution—sample mass before dilution)/sample mass before dilution*100%.

The nature of data set [3]: Pharmacokinetics in mice: blood concentration versus time (LC-MS/MS). The format is in vivo, Kunming mice. The following applies: 10 mg/kg butyphthalide or equal moles; for concentration at 5 min / concentration at 1 h: male, Kunming, mouse, plasma. The protocol: (§1) 1. Animal Grouping and Dosage Regimen
(§2) 90 Kunming mice (male; 20±2 g) are randomly grouped into three groups, with 30 mice in each of the groups. The first group is the butyphthalide group, is divided into 6 subgroups (5 mice in each of the subgroups), and is administered with butyphthalide by 10 mg/kg. The secondary group is the DB-1 group, is divided into 6 subgroups (5 mice in each of the subgroups), and is administered with DB-1 of the equal moles to the butyphthalide. The third group is the DB-2 group, is divided into 6 subgroups (5 mice in each of the subgroups), and is administered with DB-2 of the equal moles to the butyphthalide. Before the experiment the mice are fasted and are free to drink water. At 5 min, 15 min, 30 min, 1 h, 2 h and 4 h, all of the groups are taken blood at the orbit and then executed, and the hearts, livers, spleens, lungs, kidneys and brains of the mice are immediately separated, washed by using normal saline, dried by using filter paper, weighed, added normal saline of a certain multiple, homogenized, placed into a −40° C. refrigerator, and refrigerated for use. The whole blood is centrifuged at 4500 r/min for 5 min, and the plasma is sucked and placed into a −40° C. refrigerator for use. The stored tissue homogenates are thawed, and 0.1 mL of each of the tissue homogenates is placed into a 0.5 mL EP tube, and added 0.2 mL of acetonitrile protein for precipitation. The precipitate is treated by vortex shocking for 5 minutes, and centrifuged at 10000 rpm for 10 min, and […] of the supernatant is fed into an LC-MS/MS system, for measuring the concentrations of the tested medicines.

Data set [4] is described as follows: In-vivo tissue distribution in mice (heart, liver, spleen, lung, kidney, brain). On the set-up: species or system Kunming mice. To be noted: for contents in the brain compared with the sodium salt of 2-(α-hydroxypentyl)benzoic acid (NBP): all detection time points. Here is the method: as §1, §2
Data set [5] can be described thus: Assessment on the brain targeting ability (Re, Ce, DTI relative to NBP, DAS3.2.5). The following applies: mice. In kind it is in vivo, Kunming mice. The protocol: as §2
The pharmacokinetic parameters are calculated by using the DAS3.2.5 software. Regarding the quantitative assessment on the brain targeting ability of the sodium salt of 2-(α-hydroxypentyl)benzoic acid (NBP), DB-1 hydrochloride and DB-2 hydrochloride, the following parameters are employed: relative uptake ratio (Rebrain), peak concentration ratio (Cebrain) and drug targeting index (DTIbrain), the calculating formulas of which are respectively: Re(brain, DB-1)=(AUCbrain)DB-1/(AUCbrain)NBP CeDB-1=(Cmax,brain)DB-1/(Cmax,brain)NBP DTIDB-1=(AUCbrain/AUCplasma)DB-1/(AUCbrain/AUCplasma)NBP Re(brain, DB-2)=(AUCbrain)DB-2/(AUCbrain)NBP CeDB-2=(Cmax,brain)DB-2/(Cmax,brain)NBP DTIDB-2=(AUCbrain/AUCplasma)DB-2/(AUCbrain/AUCplasma)NBP
The calculation results of the parameters can be seen in Table 2. Regarding DB-1, the brain relative uptake ratio Re is 3.64, the peak concentration ratio Ce is 2.93, and the drug targeting index DTI is 12.45. Regarding DB-2, the brain relative uptake ratio Re is 4.27, the peak concentration ratio Ce is 3.19, and the drug targeting index DTI is 18.08.

The mark [6] stands for this setting: pH 1.0 HCl, pH 4.5 acetate, pH 6.8 phosphate buffer, pure water.
The mark [7] stands for this setting: 5 min after intravenous administration.
Where [8] appears, read: 1 h after intravenous administration.

Converted amounts (≈) assume the structure as drawn. Read-outs that look alike come from different tables or passages of the source.

Regarding `CCCCC(OC(C)=O)c1ccccc1C(=O)OCCN(C)C` (stereo not shown) [DB-1], in data set [1] (setting [6]), the “influence of pH on solubility” value is on record as “highest in the pH 1.0 HCl solution”. In data set [1] (pure water), the “solubility class in words” value is recorded as “soluble medicines”. In data set [1] (pure water), the solubility amounted to 20 ± 2.98 mg/mL (≈ 62.3 mM). Moreover, the “moisture absorption/weight gaining percentage” value in data set [2] (6 h) was 0.42%; in data set [2] (12 h), 0.65%; in data set [2] (24 h) it was 0.88%; in data set [2] (48 h), 0.93%; in data set [2] (96 h), 0.97%; in data set [2] (120 h), 1.03%. Further, the “moisture absorption/weight gaining percentage” value in data set [2] (120 h, listed as DB-1 hydrochloride) was determined as 1.03±0.07%. In data set [3] (setting [7]), this compound gave a concentration at 5 min of 8.68 ± 1.48 µM. In data set [3] (setting [8]), the concentration at 1 h came to 2980 ± 534 nM. Also, the “permeation of the blood-brain barrier” value in data set [4] was “can also permeate the blood-brain barrier and enter the brain”. Besides, in data set [4], the “contents in the brain compared with the sodium salt of 2-(α-hydroxypentyl)benzoic acid (NBP)” value was “significant greater”. Also, the “brain relative uptake ratio Re (AUCbrain of compound / AUCbrain of NBP)” value in data set [5] came out at 3.64. For the same compound, in data set [5], the “drug targeting index DTI ((AUCbrain/AUCplasma) of compound / (AUCbrain/AUCplasma) of NBP)” value is reported as 12.45. In data set [5], the “peak concentration ratio Ce (Cmax,brain of compound / Cmax,brain of NBP)” value is 2.93.
Consider `CCCCC(OC(C)=O)c1ccccc1C(=O)OCCN1CCCCC1` (stereo not shown) [DB-2], for which the “influence of pH on solubility” value in data set [1] (setting [6]) is recorded as “highest in the pH 1.0 HCl solution”. The “solubility class in words” value in data set [1] (pure water) was “soluble medicines”. For the same compound, in data set [1] (pure water), the solubility turned out to be 11.7 ± 1.89 mg/mL (≈ 32.2 mM). In addition, the “moisture absorption/weight gaining percentage” value in data set [2] (6 h) was 0.38%; in data set [2] (12 h) it was 0.54%; in data set [2] (24 h), 0.65%; in data set [2] (48 h), 0.71%; in data set [2] (96 h), 0.72%; in data set [2] (120 h) it was 0.76%. The “moisture absorption/weight gaining percentage” value in data set [2] (120 h, listed as DB-2 hydrochloride) amounted to 0.76±0.06%. Further, the concentration at 5 min in data set [3] (setting [7]) was found to be 6.29 ± 1.2 µM. The concentration at 1 h in data set [3] (setting [8]) was 1450 ± 657 nM. Besides, the “accumulated concentration in the brain compared with DB-1 hydrochloride” value in data set [4] is given as “greater”. In addition, the “permeation of the blood-brain barrier” value in data set [4] was “can also permeate the blood-brain barrier and enter the brain”. Moreover, in data set [4], the “contents in the brain compared with the sodium salt of 2-(α-hydroxypentyl)benzoic acid (NBP)” value is “significant greater”. For the same compound, the “brain relative uptake ratio Re (AUCbrain of compound / AUCbrain of NBP)” value in data set [5] was found to be 4.27. The “drug targeting index DTI ((AUCbrain/AUCplasma) of compound / (AUCbrain/AUCplasma) of NBP)” value in data set [5] amounted to 18.08. Also, in data set [5], the “peak concentration ratio Ce (Cmax,brain of compound / Cmax,brain of NBP)” value worked out at 3.19.
As for `CCCCC(O)c1ccccc1C(=O)[O-].[Na+]` (stereo not drawn) [sodium salt of 2-(α-hydroxypentyl)benzoic acid, reference compound], the “moisture absorption/weight gaining percentage” value in data set [2] (120 h) is reported as 2.49±0.25%. For the same compound, the blood concentration in data set [3] (setting [7]) was determined as 12.243 ± 1.847 nmol/mL; in data set [3] (setting [8]), 0.547 ± 0.289 nmol/mL. In addition, in data set [4], the “permeation of the blood-brain barrier” value is “can permeate the blood-brain barrier and enter the brain”. For the same compound, the “contents in the heart, the lung and the brain” value in data set [4] (4 h after administration) is on record as “too low to be detected”.
For the compound `CCCCC1OC(=O)c2ccccc21` (racemic) [Butyphthalide (NBP), dl-3-n-butylphthalide, reference compound], in data set [1], the “apparent solubility in pure water” value was 0.0734 ± 0.0123 mg/mL, the “influence of pH on solubility” value was “not obvious” and the “solubility class in words” value was “insoluble medicine”.
